Broadly, the IC50 is the concentration that inhibits the measured activity by half.

Structures are written as SMILES.

For assay [1], the target named is T1, Akt1 (Homo sapiens, UniProt P31749).
T1 construct: unspecified tag, removed (detagged) (cleaved yes); purchased SignalChem and Proteros (Akt1); Merck Millipore (PDK1) 14-452 (PDK1); none given for Akt1
Put plainly: Akt activation assay (PDK1-mediated activation, LANCE Ultra crosstide TR-FRET), Akt1. Format: biochemical. The settings on record: read-out: Biological Assay 1 IC50 (nM) Akt1. A digest of the protocol:
(§1)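 Compound + Akt preinc.; start w/ PDK1 5 nM, DOPS/DOPC 5.5 μM each, PIP3 0.55 μM, ATP 100 μM, Ulight-crosstide 100 nM; HEPES pH 7.5, 10 mM MgCl2, 2 mM DTT, 1% DMSO; 30 min; EDTA stop; Eu-Ab TR-FRET; 4-PL IC50.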

For assay [2], the target named is T2, p-Akt2 in WM115 cells (Homo sapiens, UniProt P31751).
T2 construct: SureFire assays to detect cellular p-Akt1, p-Akt2 and p-Akt3 levels in WM115 cells (Akt2/3) and LNCaP cells (Akt1); endogenous in cells; host or cells: WM115 (ECACC 91061232), insulin-stimulated
T2 sequence (P31751 whole entry): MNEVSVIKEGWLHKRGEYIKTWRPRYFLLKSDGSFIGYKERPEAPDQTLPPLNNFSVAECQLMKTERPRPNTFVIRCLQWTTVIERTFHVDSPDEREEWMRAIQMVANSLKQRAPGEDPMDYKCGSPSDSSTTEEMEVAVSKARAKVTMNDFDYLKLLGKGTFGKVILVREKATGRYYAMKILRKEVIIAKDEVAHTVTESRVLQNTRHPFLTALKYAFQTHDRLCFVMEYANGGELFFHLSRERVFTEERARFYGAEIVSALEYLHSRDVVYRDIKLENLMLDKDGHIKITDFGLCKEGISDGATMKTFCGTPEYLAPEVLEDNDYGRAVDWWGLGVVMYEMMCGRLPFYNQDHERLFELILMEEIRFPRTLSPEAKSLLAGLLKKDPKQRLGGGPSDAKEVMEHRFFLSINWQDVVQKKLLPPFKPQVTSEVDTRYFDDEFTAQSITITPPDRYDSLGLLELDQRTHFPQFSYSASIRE
Briefly: Phospho-Akt cellular SureFire assay, p-Akt2 in WM115 cells. As to conditions: insulin stimulated, read-out: Biological Assay 2 IC50 (nM) Akt2 WM115. The format is cell-based. A digest of the protocol: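 WM115 cells in 0.1% FBS medium stimulated 10 min with 100 nM insulin, then exposed to compound for 15 min at 37° C (0.3% DMSO final). Lysates assayed by AlphaScreen with anti-(pThr308)Akt and isoform-specific total Akt2 antibodies; IC50 from 4-parameter fit.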

For assay [3], the target named is T3, p-Akt1 in LNCaP cells (Homo sapiens, UniProt P31749).
T3 construct: SureFire assays to detect cellular p-Akt1, p-Akt2 and p-Akt3 levels in WM115 cells (Akt2/3) and LNCaP cells (Akt1); endogenous in cells; host or cells: LNCaP (ECACC 89110211)
T3 sequence (P31749 whole entry): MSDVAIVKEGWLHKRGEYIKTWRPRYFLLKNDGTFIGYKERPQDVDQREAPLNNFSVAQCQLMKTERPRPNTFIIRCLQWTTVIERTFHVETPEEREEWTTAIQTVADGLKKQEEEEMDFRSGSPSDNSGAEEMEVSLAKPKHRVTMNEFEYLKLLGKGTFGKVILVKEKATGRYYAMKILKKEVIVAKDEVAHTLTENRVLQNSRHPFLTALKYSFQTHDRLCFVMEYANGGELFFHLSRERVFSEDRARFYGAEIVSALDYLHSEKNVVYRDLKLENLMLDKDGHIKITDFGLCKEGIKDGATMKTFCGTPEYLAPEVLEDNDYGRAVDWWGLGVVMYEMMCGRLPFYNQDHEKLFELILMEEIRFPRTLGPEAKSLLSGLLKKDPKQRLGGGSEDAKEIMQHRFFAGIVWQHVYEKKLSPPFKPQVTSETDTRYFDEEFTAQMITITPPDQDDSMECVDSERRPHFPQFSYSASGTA
Put plainly: Phospho-Akt cellular SureFire assay, p-Akt1 in LNCaP cells. Format: cell-based. As to conditions: read-out: Biological Assay 2 IC50 (nM) Akt1 LNCaP. A digest of the protocol:
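LNCaP cells, 5×10^4/well, seeded overnight, switched to 0.1% FBS medium without insulin stimulation, then compound for 15 min at 37 °C (0.3% DMSO). Lysate p-Akt1 (pThr308) by AlphaScreen SureFire, two 2 h incubations at room temperature; IC50 by 4-parameter fit.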

In assay [4] the target is T4, Akt3 (Homo sapiens, UniProt Q9Y243).
T4 construct: unspecified tag, removed (detagged) (cleaved yes); purchased SignalChem and Proteros (Akt3); Merck Millipore (PDK1) 14-452 (PDK1); none given for Akt3
T4 sequence (Q9Y243 whole entry): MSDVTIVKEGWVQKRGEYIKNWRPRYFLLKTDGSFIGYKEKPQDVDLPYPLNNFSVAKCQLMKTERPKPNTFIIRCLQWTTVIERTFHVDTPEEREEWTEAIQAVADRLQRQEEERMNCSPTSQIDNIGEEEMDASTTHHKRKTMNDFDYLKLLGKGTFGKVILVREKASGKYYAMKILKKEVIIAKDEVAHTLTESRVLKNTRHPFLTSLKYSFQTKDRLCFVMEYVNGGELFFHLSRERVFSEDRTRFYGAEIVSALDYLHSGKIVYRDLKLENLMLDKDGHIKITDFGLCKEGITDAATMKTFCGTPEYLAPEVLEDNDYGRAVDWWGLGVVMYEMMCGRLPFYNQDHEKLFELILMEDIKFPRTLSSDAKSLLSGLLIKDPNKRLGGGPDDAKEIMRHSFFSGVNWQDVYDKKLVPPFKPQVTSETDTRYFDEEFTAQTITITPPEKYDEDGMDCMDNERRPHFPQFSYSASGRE
Put plainly: Akt activation assay (PDK1-mediated activation, LANCE Ultra crosstide TR-FRET), Akt3. Format: biochemical. As to conditions: read-out: Biological Assay 1 IC50 (nM) Akt3. A digest of the protocol: as §1

Assay [5] concerns the target T5, Akt2 (Homo sapiens, UniProt P31751).
T5 construct: unspecified tag, removed (detagged) (cleaved yes); purchased SignalChem and Proteros (Akt2); Merck Millipore (PDK1) 14-452 (PDK1); none given for Akt2
Briefly: Akt activation assay (PDK1-mediated activation, LANCE Ultra crosstide TR-FRET), Akt2. The format is biochemical. As to conditions: read-out: Biological Assay 1 IC50 (nM) Akt2. A digest of the protocol:
as §1

The target of assay [6] is T6, p-Akt3 in WM115 cells (Homo sapiens, UniProt Q9Y243).
T6 construct: SureFire assays to detect cellular p-Akt1, p-Akt2 and p-Akt3 levels in WM115 cells (Akt2/3) and LNCaP cells (Akt1); endogenous in cells; host or cells: WM115 (ECACC 91061232), insulin-stimulated
T6 sequence (Q9Y243 whole entry): as above
Briefly: Phospho-Akt cellular SureFire assay, p-Akt3 in WM115 cells. The format is cell-based. The settings on record: insulin stimulated, read-out: Biological Assay 2 IC50 (nM) Akt3 WM115. A digest of the protocol: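 WM115 cells were serum-reduced to 0.1% FBS, stimulated with 100 nM insulin for 10 min, then exposed to compound (0.3% DMSO) for 15 min at 37 °C. Lysates were assayed for Thr308-phosphorylated Akt3 by AlphaScreen SureFire using an isoform-specific total Akt3 capture antibody. IC50 was derived from a 4-parameter fit.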

T5 sequence (P31751 whole entry): as the sequence (P31751 whole entry) above
T1 sequence (P31749 whole entry): as the sequence (P31749 whole entry) above

As for `CC(C)(C)CC(=O)N[C@H]1CC[C@H](CC(=O)Nc2cnc(-c3ccc(C(C)(C)N)cc3)c(-c3ccccc3)c2)CC1` [Example A37, N-(trans-4-(2-((6-(4-(2-aminopropan-2-yl)phenyl)-5-phenylpyridin-3-yl)amino)-2-oxoethyl)cyclohexyl)-3,3-dimethylbutanamide], the IC50 in assay [1] was above 30000 nM; in assay [2] it was 8700 nM; in assay [3] it was above 30000 nM; in assay [4], 61 nM; in assay [5], 3500 nM; in assay [6] it was 340 nM.

In the case of `CC(=O)N[C@H]1CC[C@H](CC(=O)Nc2cnc(-c3ccc(C4(N)CCC4)cc3)c(-c3ccccc3)c2)CC1` [Example A38, 2-(trans-4-acetamidocyclohexyl)-N-(6-(4-(1-aminocyclobutyl)phenyl)-5-phenylpyridin-3-yl)acetamide], the IC50 in assay [1] is 10000 nM; in assay [2] it was 1600 nM; in assay [3], above 5700 nM; in assay [4] it was 18 nM; in assay [5], 190 nM; in assay [6] it was 120 nM.

As for `CCCC(=O)N[C@H]1CC[C@H](CC(=O)Nc2cnc(-c3ccc(C4(N)CC4)cc3)c(-c3ccccc3)c2)CC1` [Example A41, N-(trans-4-(2-((6-(4-(1-aminocyclopropyl)phenyl)-5-phenylpyridin-3-yl)amino)-2-oxoethyl)cyclohexyl)butyramide], the IC50 in assay [1] came out at 11000 nM; in assay [2], 840 nM; in assay [3], 3600 nM; in assay [4], 75 nM; in assay [5] it was 370 nM; in assay [6], 59 nM.

For the compound `CC(=O)N(C(C)C)[C@H]1CC[C@H](CC(=O)Nc2cnc(-c3ccc(C(C)(C)N)cc3)c(-c3ccccc3)c2)CC1` [Example A44, N-(6-(4-(2-aminopropan-2-yl)phenyl)-5-phenylpyridin-3-yl)-2-(trans-4-(N-isopropylacetamido)cyclohexyl)acetamide], the IC50 was above 30000 nM in assay [1]; 11000 nM in assay [2]; above 30000 nM in assay [3]; 1800 nM in assay [4]; 13000 nM in assay [5]; 440 nM in assay [6].

With `CC(C)(N)c1ccc(-c2ncc(NC(=O)C[C@H]3CC[C@H](C(=O)N4CCOCC4)CC3)cc2-c2ccccc2)cc1` [Example A46, N-(6-(4-(2-aminopropan-2-yl)phenyl)-5-phenylpyridin-3-yl)-2-(trans-4-(morpholine-4-carbonyl)cyclohexyl)acetamide], the IC50 was above 30000 nM in assay [1]; 6300 nM in assay [2]; above 30000 nM in assay [3]; 1000 nM in assay [4]; 2400 nM in assay [5]; 190 nM in assay [6].

Turning to `CC(C)(N)c1ccc(-c2ncc(NC(=O)C[C@H]3CC[C@H](C(=O)N4CCCC4)CC3)cc2-c2ccccc2)cc1` [Example A47, N-(6-(4-(2-aminopropan-2-yl)phenyl)-5-phenylpyridin-3-yl)-2-(trans-4-(pyrrolidine-1-carbonyl)cyclohexyl)acetamide], the IC50 in assay [1] was above 30000 nM; in assay [2], 11000 nM; in assay [3], above 30000 nM; in assay [4] it was 370 nM; in assay [5], 2100 nM; in assay [6], 440 nM.

Regarding `CC(C)(N)c1ccc(-c2cnc(NC(=O)C[C@H]3CC[C@H](N4CCCC4=O)CC3)cc2-c2ccccc2)cc1` [Example A49, N-(5-(4-(2-aminopropan-2-yl)phenyl)-4-phenylpyridin-2-yl)-2-(trans-4-(2-oxopyrrolidin-1-yl)cyclohexyl)acetamide], the IC50 in assay [1] was above 30000 nM; in assay [2], 4400 nM; in assay [3] it was above 30000 nM; in assay [4], 120 nM; in assay [5], 3600 nM; in assay [6] it was 200 nM.

(Values after patent US10336702B2, “Pharmaceutically active compounds” (BERGENBIO ASA, priority 2015, dated 2019).)
